Activity calls are given as the source filed them. The rule behind the calls is not given here.

A word on the inhibition: it is how much of the control response was suppressed. Low values mean little suppression, high ones strong suppression. The Inhibition is the relative decrease from the control value, in per cent.

Type in all cases: functional
Assay [1] deals with Staphylococcus aureus. As to the kind of experiment: Growth inhibition of Staphylococcus aureus RN4220 expressing MsrA at 0.1 mg/ml after 24 hrs. The note with it: for inhibition at 100 µg/mL: RN4220, 24 h.
In assay [2] the test system is Staphylococcus aureus. As to the kind of experiment: Growth inhibition of Staphylococcus aureus RN4220 expressing MsrA at 0.1 mg/ml after 24 hrs in presence of 16 mg/L erythromycin.
The subject of assay [3] is Staphylococcus aureus. As to the kind of experiment: Growth inhibition of Staphylococcus aureus ATCC 25923 at 0.1 mg/ml after 24 hrs. The note with it: for inhibition at 100 µg/mL: ATCC 25923, 24 h.
The subject of assay [4] is Staphylococcus aureus. As to the kind of experiment: Growth inhibition of Staphylococcus aureus 1199B expressing NorA at 0.1 mg/ml after 24 hrs.
Assay [5] deals with Staphylococcus aureus. Description: Growth inhibition of Staphylococcus aureus 1199B expressing NorA at 0.1 mg/ml after 24 hrs in presence of 4 mg/L ciprofloxacin.

Consider `C=CCn1cc(CN2C(=O)c3ccccc3C2=O)nn1`, for which the figures for the inhibition at 100 µg/mL in the assay on Staphylococcus aureus [1] and with Staphylococcus aureus [4] were 33% and 18%, respectively. In addition, the Inhibition in the assay with Staphylococcus aureus [2] is 36%; with Staphylococcus aureus [5], 23%. Also, the outcome in the assay on Staphylococcus aureus [3] was inactive.
`C=CCn1cc(C(=O)OC)nn1`: the values for the inhibition at 100 µg/mL in the assay on Staphylococcus aureus [1], in the assay with Staphylococcus aureus [3] and in the assay with Staphylococcus aureus [4] were 44%, 21% and 16%, respectively. Further, the Inhibition in the assay with Staphylococcus aureus [2] is recorded as 71%; in the assay on Staphylococcus aureus [5] it was 16%.
Take `COC(=O)c1cn(-c2cccnc2)nn1`: the figures for the inhibition at 100 µg/mL with Staphylococcus aureus [1] and with Staphylococcus aureus [3] were 11% and 16%, respectively. For the same molecule, the Inhibition in the assay with Staphylococcus aureus [2] is 78.3%. Moreover, the result in the assay on Staphylococcus aureus [4] and in the assay with Staphylococcus aureus [5] was inactive.
As to `O=C1c2ccccc2C(=O)N1Cc1cn(-c2ccccc2)nn1`, the inhibition at 100 µg/mL worked out at 24% with Staphylococcus aureus [1] and 17% with Staphylococcus aureus [4]. For the same molecule, the Inhibition in the assay with Staphylococcus aureus [2] is listed as 41%; in the assay on Staphylococcus aureus [5], 17%. In addition, the result in the assay with Staphylococcus aureus [3] was inactive.
`O=C(O)c1cn(Cc2ccccc2)nn1`: the inhibition at 100 µg/mL in the assay on Staphylococcus aureus [1] was 31%; in the assay on Staphylococcus aureus [4] it was 8%. Also, the Inhibition was 22% in the assay on Staphylococcus aureus [2] and 9% in the assay with Staphylococcus aureus [5]. Also, the outcome in the assay on Staphylococcus aureus [3] was inactive.
For `C=CCn1cc(C(OCC)OCC)nn1`, the results for the inhibition at 100 µg/mL with Staphylococcus aureus [1] and in the assay with Staphylococcus aureus [3] were 6% and 17%, respectively. For the same molecule, in the assay with Staphylococcus aureus [2], the Inhibition is given as 40%. Moreover, the result in the assay on Staphylococcus aureus [4] and in the assay with Staphylococcus aureus [5] was inactive.
In the case of `O=C1c2ccccc2C(=O)N1Cc1cn(-c2cccnc2)nn1`, the inhibition at 100 µg/mL in the assay on Staphylococcus aureus [1] stood at 46%; in the assay with Staphylococcus aureus [3], 24%; in the assay with Staphylococcus aureus [4], 22%. Besides, the values for the Inhibition in the assay on Staphylococcus aureus [2] and with Staphylococcus aureus [5] were 71% and 26.6%, respectively.
The matching figures for `O=C1c2ccccc2C(=O)N1Cc1cn(-c2ccc([N+](=O)[O-])cc2)nn1`: 48.1%, 22%, 35%, 72% and 38%.
For the molecule `CCOC(OCC)c1cn(-c2cccnc2)nn1`, the result in the assay with Staphylococcus aureus [1], in the assay with Staphylococcus aureus [2], in the assay with Staphylococcus aureus [3] and in the assay on Staphylococcus aureus [5] was inactive. The same molecule had an inhibition at 100 µg/mL in the assay with Staphylococcus aureus [4] of 6.3%.
As to `CCOC(OCC)c1cn(-c2ccc(OC)cc2)nn1`, the results for the inhibition at 100 µg/mL with Staphylococcus aureus [1] and in the assay on Staphylococcus aureus [4] were 9% and 11%, respectively. In addition, the Inhibition is listed as 25% in the assay with Staphylococcus aureus [2] and 71% in the assay on Staphylococcus aureus [5]. Besides, the outcome with Staphylococcus aureus [3] was inactive.
Consider `O=[N+]([O-])c1ccc(-n2cc(COc3ccccc3)nn2)cc1`, for which the inhibition at 100 µg/mL came to 34% in the assay with Staphylococcus aureus [1], 27% in the assay on Staphylococcus aureus [3] and 18% with Staphylococcus aureus [4]. Also, the values for the Inhibition in the assay with Staphylococcus aureus [2] and with Staphylococcus aureus [5] were 56% and 24%, respectively.
The matching figures for `c1ccc(OCc2cn(-c3ccccc3)nn2)cc1`: 11%, 31%, 11%, 41% and 26%.
With `O=C(O)c1cn(-c2ccccc2)nn1`, the inhibition at 100 µg/mL was determined as 54% in the assay with Staphylococcus aureus [1] and 18% in the assay with Staphylococcus aureus [4]. Further, the figures for the Inhibition in the assay on Staphylococcus aureus [2] and in the assay with Staphylococcus aureus [5] were 74.9% and 15%, respectively. In the assay on Staphylococcus aureus [3], the result was inactive.
In the case of `COc1ccc(-n2cc(C(=O)O)nn2)cc1`, the values for the inhibition at 100 µg/mL in the assay on Staphylococcus aureus [1] and in the assay on Staphylococcus aureus [4] were 38% and 21%, respectively. The Inhibition in the assay on Staphylococcus aureus [2] is given as 45.8%; with Staphylococcus aureus [5] it was 24%. Besides, in the assay with Staphylococcus aureus [3], the outcome was inactive.
On to `CCCCCCCCCCCCn1cc(CN2C(=O)c3ccccc3C2=O)nn1`, for which the inhibition at 100 µg/mL in the assay on Staphylococcus aureus [1] was found to be 43%; with Staphylococcus aureus [3] it was 20%; in the assay on Staphylococcus aureus [4], 40%. The Inhibition in the assay with Staphylococcus aureus [2] is recorded as 65%; in the assay on Staphylococcus aureus [5] it was 45%.
For the molecule `C=CCn1cc(COc2ccccc2)nn1`, the inhibition at 100 µg/mL in the assay with Staphylococcus aureus [1] was found to be 32%; with Staphylococcus aureus [3], 16%; with Staphylococcus aureus [4], 15%. For the same molecule, the figures for the Inhibition in the assay on Staphylococcus aureus [2] and in the assay on Staphylococcus aureus [5] were 38% and 20%, respectively.
In the same order, the values of `c1ccc(Cn2cc(COc3ccccc3)nn2)cc1` are 32.7%, 12%, 21%, 43% and 20%.
In the case of `C=CCn1cc(C(=O)O)nn1`, the result in the assay on Staphylococcus aureus [1], in the assay with Staphylococcus aureus [2], in the assay with Staphylococcus aureus [3] and in the assay on Staphylococcus aureus [4] was inactive. Also, the Inhibition with Staphylococcus aureus [5] worked out at 6%.
With `c1ccc(OCc2cn(-c3cccnc3)nn2)cc1`, the inhibition at 100 µg/mL was 30% with Staphylococcus aureus [1], 22% with Staphylococcus aureus [3] and 22% with Staphylococcus aureus [4]. Also, the values for the Inhibition in the assay on Staphylococcus aureus [2] and with Staphylococcus aureus [5] were 58% and 56%, respectively.
For `O=C(O)c1cn(-c2cccnc2)nn1`, the results for the inhibition at 100 µg/mL in the assay on Staphylococcus aureus [1], in the assay on Staphylococcus aureus [3] and in the assay with Staphylococcus aureus [4] were 52.6%, 14% and 23%, respectively. The values for the Inhibition in the assay with Staphylococcus aureus [2] and with Staphylococcus aureus [5] were 78% and 24%, respectively.
In the case of `CCOC(OCC)c1cn(Cc2ccccc2)nn1`, the results for the inhibition at 100 µg/mL in the assay on Staphylococcus aureus [1], in the assay with Staphylococcus aureus [3] and with Staphylococcus aureus [4] were 19%, 32% and 6%, respectively. Further, the Inhibition is 28% in the assay on Staphylococcus aureus [2] and 8% with Staphylococcus aureus [5].
In the case of `CCOC(OCC)c1cn(-c2ccccc2)nn1`, the result in the assay on Staphylococcus aureus [1], in the assay on Staphylococcus aureus [2], in the assay with Staphylococcus aureus [3], in the assay with Staphylococcus aureus [4] and with Staphylococcus aureus [5] was inactive.
Regarding `COc1ccc(-n2cc(CN3C(=O)c4ccccc4C3=O)nn2)cc1`, the figures for the inhibition at 100 µg/mL in the assay with Staphylococcus aureus [1], in the assay on Staphylococcus aureus [3] and in the assay on Staphylococcus aureus [4] were 24.1%, 24% and 15%, respectively. The figures for the Inhibition with Staphylococcus aureus [2] and in the assay with Staphylococcus aureus [5] were 48% and 18%, respectively.
As for `OCc1cn(Cc2ccccc2)nn1`, the result in the assay on Staphylococcus aureus [1], with Staphylococcus aureus [2] and with Staphylococcus aureus [5] was inactive. Moreover, the inhibition at 100 µg/mL turned out to be 6.1% in the assay on Staphylococcus aureus [3] and 6% in the assay with Staphylococcus aureus [4].
Turning to `CCCCCCCCn1cc(CN2C(=O)c3ccccc3C2=O)nn1`, the figures for the inhibition at 100 µg/mL with Staphylococcus aureus [1] and with Staphylococcus aureus [4] were 40% and 27.4%, respectively. Further, the Inhibition with Staphylococcus aureus [2] was determined as 24%; with Staphylococcus aureus [5] it was 25%. Moreover, the result in the assay on Staphylococcus aureus [3] was inactive.
The matching figures for `O=C1c2ccccc2C(=O)N1Cc1cn(Cc2ccccc2)nn1`: 30%, 57%, 44%, 36% and “inactive”.
As for `COc1ccc(-n2cc(COc3ccccc3)nn2)cc1`, the inhibition at 100 µg/mL turned out to be 21% in the assay with Staphylococcus aureus [1], 10% in the assay on Staphylococcus aureus [3] and 11% in the assay with Staphylococcus aureus [4]. Also, the Inhibition in the assay with Staphylococcus aureus [2] turned out to be 39%; in the assay on Staphylococcus aureus [5], 16%.
In the same order, the values of `COC(=O)c1cn(Cc2ccccc2)nn1` are 15%, 25%, 15%, 33% and 18%.
